Laboratory results taken from US20120010173A1 (SEPS PHARMA N.V., priority 2009, published 2012).

Assays:
[1] = Solubility of fosfluconazole derivatives in pharmaceutical solvents (Table 2); type: physicochemical; conditions: thermodynamic from solid
Method: The solubility determination method used was as follows: a suspension of 6 mg of the tested fosfluconazole derivative in 500 μl of the applicable pharmaceutical solvent was rotatively shaken for 24 hours at 800 rpm at 25° C. The saturated fosfluconazole derivative solution was filtered (0.45 μm) and 150 μl of the filtrate was diluted in dimethylsulfoxide (50 μl DMSO). This solution was assayed, each assay being carried out in three-fold, by measurement with Liquid Chromatography-Mass Spectrometry (LCMS, 1 μl and 10 μl injection). Standards were prepared by dissolving the corresponding fosfluconazole derivative in DMSO (1 mg/ml). To determine the solubility, four aliquots (0.5, 1, 2, 4 μl) of the standard solution were injected using the same LCMS conditions as for the above exemplary samples.

[2] = Chemical stability in pharmaceutical solvents (weight % remaining in solution, LCMS); type: physicochemical
Method: (§1) Table 4 provides the chemical stability data in some pharmaceutical solvents, expressed as the weight percentage (% w/w) of the final fosfluconazole derivative produced and characterized in example 1 that remained in solution after a certain period of time. The test was carried out twice, and the remaining weight % was determined by Liquid Chromatography-Mass Spectrometry (LCMS).
as §1, with “5” for “4”, “solvents at 25° C.,” for “solvents,”, “2” for “1”
as §1, with “6” for “4”, “solvents at 25° C.,” for “solvents,”, “3” for “1”
as §1, with “7” for “4”, “4” for “1”
as §1, with “8” for “4”, “5” for “1”
as §1, with “9” for “4”, “6” for “1”
as §1, with “10” for “4”, “14” for “1”

[3] = aqueous with cosolvent or surfactant or cyclodextrin, H2O/Cremophor RH 40 (80/20), 25° C.
[4] = aqueous with cosolvent or surfactant or cyclodextrin, H2O/Kleptose HPB (60/40), 25° C.
[5] = aqueous with cosolvent or surfactant or cyclodextrin, H2O/Vitamin E TPGS (90/10), 25° C.
[6] = aqueous with cosolvent or surfactant or cyclodextrin, H2O/polysorbate 80 (80/20), 25° C.
[7] = oil or lipid, Miglyol 812, 25° C.
[8] = organic solvent or mixture, PEG 400, 25° C.
[9] = water (pH 2), aqueous buffer, H2O (pH = 2), 25° C.
[10] = water (pH 7), aqueous buffer, H2O (pH = 7), 25° C.
[11] = water (pH 10), aqueous buffer, H2O (pH = 10), 25° C.
[12] = H2O/Kleptose HPB (60/40), 4 hours
[13] = H2O/Kleptose HPB (60/40), 1 day
[14] = H2O/Kleptose HPB (60/40), 2 days
[15] = H2O/Kleptose HPB (60/40), 7 days
[16] = H2O/Kleptose HPB (60/40), 14 days

solubility at 24 h [1, 3] [µg/mL]	solubility at 24 h [1, 4] [µg/mL]	solubility at 24 h [1, 5] [µg/mL]	solubility at 24 h [1, 6] [µg/mL]	solubility at 24 h [1, 7] [µg/mL]	solubility at 24 h [1, 8] [µg/mL]	solubility at 24 h [1, 9] [µg/mL]	solubility at 24 h [1, 10] [µg/mL]	solubility at 24 h [1, 11] [µg/mL]	weight percentage that remained in solution ([2]; H2O (pH = 7), 4 hours) [% w/w]	weight percentage that remained in solution ([2]; H2O (pH = 7), 1 day) [% w/w]	weight percentage that remained in solution ([2]; H2O (pH = 7), 2 days) [% w/w]	weight percentage that remained in solution ([2]; H2O (pH = 7), 7 days) [% w/w]	weight percentage that remained in solution ([2]; H2O (pH = 7), 14 days) [% w/w]	weight percentage that remained in solution ([2]; H2O (pH = 10), 4 hours) [% w/w]	weight percentage that remained in solution ([2]; H2O (pH = 10), 1 day) [% w/w]	weight percentage that remained in solution ([2]; H2O (pH = 10), 2 days) [% w/w]	weight percentage that remained in solution ([2]; H2O (pH = 10), 7 days) [% w/w]	weight percentage that remained in solution ([2]; H2O (pH = 10), 14 days) [% w/w]	weight percentage that remained in solution [2, 12] [% w/w]	other results	Structure (SMILES)
> 10000	> 10000	> 10000	> 10000	2600	> 10000	> 10000	> 10000	> 10000	94.8	94.7	95.0	94.8	95.1	94.8	94.8	95.0	95.0	95.2	95.0	weight percentage that remained in solution ([2]; H2O (pH = 2), 4 hours): 94.8 % w/w; weight percentage that remained in solution ([2]; H2O (pH = 2), 1 day): 94.6 % w/w; weight percentage that remained in solution ([2]; H2O (pH = 2), 2 days): 95.0 % w/w; weight percentage that remained in solution ([2]; H2O (pH = 2), 7 days): 95.0 % w/w; weight percentage that remained in solution ([2]; H2O (pH = 2), 14 days): 95.0 % w/w; weight percentage that remained in solution [2, 13]: 94.9 % w/w; weight percentage that remained in solution [2, 14]: 94.7 % w/w; weight percentage that remained in solution [2, 15]: 95.0 % w/w; weight percentage that remained in solution [2, 16]: 95.2 % w/w; weight percentage that remained in solution ([2]; PEG 400, 4 hours): 95.0 % w/w; weight percentage that remained in solution ([2]; PEG 400, 1 day): 94.9 % w/w; weight percentage that remained in solution ([2]; PEG 400, 2 days): 95.0 % w/w; weight percentage that remained in solution ([2]; PEG 400, 7 days): 95.0 % w/w; weight percentage that remained in solution ([2]; PEG 400, 14 days): 95.1 % w/w	CCCCCCCCCOCCOP(=O)([O-])OC(Cn1cncn1)(Cn1cncn1)c1ccc(F)cc1F.[Na+] [Example 3, sodium 2-(2,4-difluorophenyl)-1,3-di(1H-1,2,4-triazol-1-yl)propan-2-yl 2-(nonyloxy)ethyl phosphate]
> 10000	> 10000	> 10000	> 10000	1200	> 10000	> 10000	> 10000	> 10000	99.1	99.3	99.2	99.2	99.4	99.3	99.3	99.4	99.3	99.9	99.5	weight percentage that remained in solution ([2]; H2O (pH = 2), 4 hours): 99.0 % w/w; weight percentage that remained in solution ([2]; H2O (pH = 2), 1 day): 99.1 % w/w; weight percentage that remained in solution ([2]; H2O (pH = 2), 2 days): 99.2 % w/w; weight percentage that remained in solution ([2]; H2O (pH = 2), 7 days): 99.2 % w/w; weight percentage that remained in solution ([2]; H2O (pH = 2), 14 days): 99.6 % w/w; weight percentage that remained in solution [2, 13]: 99.3 % w/w; weight percentage that remained in solution [2, 14]: 99.2 % w/w; weight percentage that remained in solution [2, 15]: 99.3 % w/w; weight percentage that remained in solution [2, 16]: 100.0 % w/w; weight percentage that remained in solution ([2]; PEG 400, 4 hours): 99.3 % w/w; weight percentage that remained in solution ([2]; PEG 400, 1 day): 99.3 % w/w; weight percentage that remained in solution ([2]; PEG 400, 2 days): 99.4 % w/w; weight percentage that remained in solution ([2]; PEG 400, 7 days): 99.4 % w/w; weight percentage that remained in solution ([2]; PEG 400, 14 days): 100.0 % w/w	CCCCCCCCCOP(=O)([O-])OC(Cn1cncn1)(Cn1cncn1)c1ccc(F)cc1F.[Na+] [Example 14, sodium 2-(2,4-difluorophenyl)-1,3-di(1H-1,2,4-triazol-1-yl)propan-2-yl nonyl phosphate]
> 10000	> 10000	> 10000	> 10000	> 10000	9000	< 1000	9900	> 10000	95.2	95.3	95.5	95.6	95.4	45.5	44.8	41.3	39.4	37.1	95.1	weight percentage that remained in solution [2, 13]: 95.3 % w/w; weight percentage that remained in solution [2, 14]: 95.3 % w/w; weight percentage that remained in solution [2, 15]: 94.2 % w/w; weight percentage that remained in solution [2, 16]: 87.7 % w/w; weight percentage that remained in solution ([2]; PEG 400, 4 hours): 96.8 % w/w; weight percentage that remained in solution ([2]; PEG 400, 1 day): 95.9 % w/w; weight percentage that remained in solution ([2]; PEG 400, 2 days): 96.7 % w/w; weight percentage that remained in solution ([2]; PEG 400, 7 days): 96.6 % w/w; weight percentage that remained in solution ([2]; PEG 400, 14 days): 97.3 % w/w	CCCCCCCCCC(=O)OCC(COP(=O)([O-])OC(Cn1cncn1)(Cn1cncn1)c1ccc(F)cc1F)OC(=O)CCCCCCCCC.[Na+] (centres unmarked) [Example 4, sodium 2,3-bis(decanoyloxy)propyl 2-(2,4-difluorophenyl)-1,3-di(1H-1,2,4-triazol-1-yl)propan-2-yl phosphate]
> 10000	4200	7400	8300	400	> 10000	> 10000	6800	7500	99.6	99.6	54.7	99.6	99.6	99.8	100.0	99.7	100.0	100.0	99.3	weight percentage that remained in solution ([2]; H2O (pH = 2), 4 hours): 99.9 % w/w; weight percentage that remained in solution ([2]; H2O (pH = 2), 1 day): 100.0 % w/w; weight percentage that remained in solution ([2]; H2O (pH = 2), 2 days): 99.4 % w/w; weight percentage that remained in solution ([2]; H2O (pH = 2), 7 days): 99.4 % w/w; weight percentage that remained in solution ([2]; H2O (pH = 2), 14 days): 99.2 % w/w; weight percentage that remained in solution [2, 13]: 98.8 % w/w; weight percentage that remained in solution [2, 14]: 98.8 % w/w; weight percentage that remained in solution [2, 15]: 98.6 % w/w; weight percentage that remained in solution [2, 16]: 99.1 % w/w; weight percentage that remained in solution ([2]; PEG 400, 4 hours): 99.8 % w/w; weight percentage that remained in solution ([2]; PEG 400, 1 day): 100.0 % w/w; weight percentage that remained in solution ([2]; PEG 400, 2 days): 99.8 % w/w; weight percentage that remained in solution ([2]; PEG 400, 7 days): 99.9 % w/w; weight percentage that remained in solution ([2]; PEG 400, 14 days): 100.0 % w/w	C[N+](C)(C)CCOP(=O)([O-])OC(Cn1cncn1)(Cn1cncn1)c1ccc(F)cc1F [Example 1, 2-(2,4-difluorophenyl)-1,3-di(1H-1,2,4-triazol-1-yl)propan-2-yl 2-(trimethylammonio)-ethyl phosphate]
